Measured values as given in article PMC10628858, “Investigation of new ferrocenyl-artesunate derivatives as antiparasitics” (Dalton Transactions (Cambridge, England : 2003), 2023).

Experiments:
[1] = Kinetic aqueous solubility, turbidimetric assay; format: physicochemical; conditions: turbidimetric assay, buffer not named
Procedure: The kinetic solubility of the complexes was determined by means of a turbidimetric assay. The complexes were first dissolved in dimethyl sulfoxide (DMSO) which was then serially diluted in either phosphate buffered saline (PBS) or 4-(2-hydroxyethyl)-1-piperazineethanesulfonic acid (HEPES). The extent of precipitation was then measured using the absorbance at 620 nm.
PBS was prepared by dissolving one PBS tablet in 200 mL of distilled water at 25 °C yielding a buffered solution containing 10 mM phosphate buffer, 3.0 mM KCl and 140 mM NaCl. The pH was then confirmed to be at 7.4 with a pH meter. A 0.025 M HEPES buffer was prepared by dissolving HEPES free acid 5.00 mmol in distilled water (±180 mL) and titrating the solution with 0.100 M NaOH until a pH 7 was reached, the volume was then made up to 200 mL using distilled water. A 10.0 mM stock of each drug was prepared in DMSO. […] 4 μL of the drugs was then pipetted into a 96-well plate loaded with 196 μL of either the desired buffer solution or DMSO. The test plates were then incubated at 37 °C for 4 hours following which the UV-Vis absorbance was measured at 620 nm and the absorbances corrected by subtracting the blank.

T. gondii = experiment: Determination of intracellular ROS levels with CellROX by flow cytometry; format: cell-based, Toxoplasma gondii; conditions: 5 μM, 6 hours, 50 000 parasites, vs untreated
Procedure: Since both ferrocene and artesunate are able to generate ROS, we attempted to quantify the intracellular ROS levels in the parasite using CellROX, a compound which fluoresces in the presence of ROS. Treatment with artesunate was included as positive control as previous studies have linked artesunate treatment to ROS accumulation.[44] The parasites were treated with 5 μM of complexes C1, C3 and C4, and incubated for 6 hours. […] Since T. gondii rely predominately on heme biosynthesis as opposed to incorporation of heme from host hemoglobin, the concentration of iron present in the parasite is lower.[45] But, by incorporating an iron center in the molecule the slower activation may be circumvented leading to quicker cell death and a decreased CellROX reading.
Fig. 5 CellROX fluorescence quantified by flow cytometry from 50 000 parasites. T. gondii were untreated (grey) or treated for 6 hours with 5 μM compounds (blue) or artesunate (red) as a positive control.
Intracellular parasites were treated with 5 μM of the drug and incubated at 37 °C with 5% CO2 for either 18 hours or 6 hours. The parasites were released from host cells by scraping and syringing followed by passing through 3 μm filters to remove host-cell debris. The parasites were spun down at 6000 RPM for 10 minutes and resuspended in 500 μL PBS. 100 μL of the parasite suspension was placed in a FACS tube and a stock solution of CellROX dye in PBS (1 : 125 dilution) was added to this. This was then incubated in the dark at 37 °C for 1 hour and then read using a BD Celesta. Parasites were gated on forward and side scatter and on mNeonGreen fluorescence and histograms of Cy5 signal presented. Data analysis was performed using Flowjo.

[2] = Cyclic voltammetry (oxidation/reduction potentials); format: physicochemical; conditions: Ag/AgCl electrode, scan rate 100 mV s^−1, 0.100 M [NBu4][PF6] in MeCN
HEK293 cells = experiment: MTT cell viability assay, HEK293; format: cell-based, human; conditions: for IC50: 48 h
Procedure: (§1) To assess the cytotoxicity of the four compounds a MTT cell viability assay using human embryonic kidney (HEK293) and human prostatic (PNT1A) cell lines were performed. […] The long chain compounds C1 and C3 were also shown to be non-cytotoxic towards the HEK293 cell line.
(§2) The immortalised human prostatic epithelial cell line, PNT1A (Sigma Aldrich, 95012614) was cultured in RPMI-1640 containing 10% foetal calf serum (Life Technologies, South Africa). The human embryonic kidney cell line HEK293 (ATCC) was cultured in DMEM (Life Technologies, South Africa). Both cell lines were cultured at 37 °C under 5% CO2 with 1% penicillin and streptomycin. Cancer cell cytotoxicity was evaluated using the MTT viability assay according to our previous method.[49] Briefly, cells were seeded at a density of 3 × 10^3 cells per well in 96-well plates and allowed to settle overnight. A 100 mM stock of C1/C2 and a 50 mM stock solution of C3/C4 in DMSO was prepared from which dilutions were made. The compound was then added to the cells in triplicate to obtain the indicated concentrations and 0.1% DMSO. Controls included cells treated with […] DMSO alone. After 48 h, 10 μL of 5 mg mL^−1 MTT (3-(4,5-dimethylthiazol-2-yl)-2,5-diphenyltetrazolium bromide) (Sigma-Aldrich) was added, and incubated with the cells for 4 h, followed by addition of 100 μL 10% SLS, 0.01 M HCL. The plates were read at 595 nm on a Multiscan FC plate reader (Thermo Scientific) and the data was fitted to a variable slope dose–response curve using Graphpad prism v6 to obtain the cytotoxicity IC50. The assay was repeated independently three times where inhibition was observed.

PNT1A cells = experiment: MTT cell viability assay, PNT1A; format: cell-based, human; conditions: 48 h
Procedure: as §1, §2

P. falciparum, NF54 = experiment: P. falciparum growth inhibition assay (Malstat); format: cell-based, Plasmodium falciparum; conditions: 72 h, maximum concentration tested 6000 nM, three independent experiments in triplicate, ± SEM; read-out: IC50 against P. falciparum, NF54
Procedure: The antimalarial activities of C1 to C4 and F1 to F3 were determined against the wild-type drug sensitive strain of P. falciparum, NF54. […]. Further, a close link between activity and oxidation potentials of the drugs was found. The lower the oxidation potential of the ferrocene moiety, the higher the activity of the final compound, giving directions for future compound development.
The drugs were prepared as 10 mM stocks in sterile DMSO. The drugs were then diluted using freshly prepared growth medium to the desired testing concentrations. Chloroquine and artesunate were used as standards. A full dose–response was preformed using a 96-well plate assay and the IC50 values determined. The maximum concentration tested was 6 μM which was then serially diluted 2-fold in growth media. The plates were incubated at 37 °C for 72 h at 3% O2 and 4% CO2. After 72 h the wells were resuspended and 15 μL of the suspension was transferred to a duplicate plate containing 100 μL of Malstat reagent and 25 μL of nitroblue tetrazolium solution. The plates were allowed 20 minutes in the dark to develop and the absorbance of each well was measured using UV-Vis at 620 nm.

Compound	Solubility range [1] [µg/mL]	Change in CellROX signal (intracellular ROS) (T. gondii)	E 1/2 [2] [V]	E Ox [2] [V]	E Red [2] [V]	ΔE [2] [V]	Cytotoxicity towards HEK293 (HEK293 cells)	IC50 (HEK293 cells) [µM]	IC50 (PNT1A cells) [µM]	IC50 (P. falciparum, NF54) [µM]	Aqueous solubility [1] [µM]
CC1CCC2C(C)C(OC(=O)CCC(=O)OCCNC(=O)[c-]3cccc3)OC3OC4(C)CCC1C32OO4.[Fe+2].c1cc[cH-]c1 (stereo not shown) [Compound C1]	25 to 51	no change in CellROX signal	0.623	0.658	0.588	0.0700	non-cytotoxic	> 100	> 100	3.4 ± 0.53	
CC1CCC2C(C)C(OC(=O)CCC(=O)NCCNC(=O)[c-]3cccc3)OC3OC4(C)CCC1C32OO4.[Fe+2].c1cc[cH-]c1 (stereo not shown) [Compound C3]	3 to 6	increase in intracellular ROS	0.616	0.660	0.571	0.0890	non-cytotoxic	> 50	> 50	4.9 ± 0.93	5 to 10
CC1CCC2C(C)C(OC(=O)CCC(=O)NC[c-]3cccc3)OC3OC4(C)CCC1C32OO4.[Fe+2].c1cc[cH-]c1 (stereo not shown) [Compound C4]	3 to 6	no change in CellROX signal	0.364	0.400	0.327	0.0730		36 ± 2.7	> 50	0.012 ± 0.002	5 to 10
